In brackets after ≈: the same amount, converted by molar mass.
Columns and labels:
Assay type in all cases: functional
Escherichia coli = experiment: Antimicrobial activity against Escherichia coli CGMCC1.1571 after 24 hrs by twofold serial microdilution method; conditions: CGMCC1.1571, 24 h
Bacillus subtilis = experiment: Antimicrobial activity against Bacillus subtilis CGMCC1.1162 after 24 hrs by twofold serial microdilution method; conditions: CGMCC1.1162, 24 h
Staphylococcus aureus = experiment: Antimicrobial activity against Staphylococcus aureus CGMCC1.1361 after 24 hrs by twofold serial microdilution method; conditions: CGMCC1.1361, 24 h
Pseudomonas fluorescens = experiment: Antimicrobial activity against Pseudomonas fluorescens CGMCC1.1828 after 24 hrs by twofold serial microdilution method; conditions: CGMCC1.1828, 24 h
Aspergillus niger = experiment: Antimicrobial activity against Aspergillus niger CGMCC3.316 after 48 hrs by twofold serial microdilution method; conditions: CGMCC3.316, 48 h
Candida albicans = experiment: Antimicrobial activity against Candida albicans CGMCC2.2086 after 48 hrs by twofold serial microdilution method; conditions: CGMCC2.2086, 48 h
Candida tropicalis = experiment: Antimicrobial activity against Candida tropicalis CGMCC2.3967 after 48 hrs by twofold serial microdilution method; conditions: CGMCC2.3967, 48 h

Compound	MIC (Escherichia coli)	MIC (Bacillus subtilis)	MIC (Staphylococcus aureus)	MIC (Pseudomonas fluorescens)	MIC (Aspergillus niger)	MIC (Candida albicans)	MIC (Candida tropicalis)
NCC[C@H](O)C(=O)N[C@@H]1C[C@H](N)[C@@H](O[C@H]2O[C@H](CN)[C@@H](O)[C@H](O)[C@H]2O)[C@H](O)[C@H]1O[C@H]1O[C@H](CO)[C@@H](O)[C@H](N)[C@H]1O.O=S(=O)(O)O	1.9 µg/mL	0.9 µg/mL	0.9 µg/mL	0.9 µg/mL			
COC(=O)[C@]1(C)CCC[C@]2(C)c3ccc(C(C)C)cc3-c3[nH]c4ccccc4c3[C@@H]12	> 100 µg/mL	31.2 µg/mL (≈ 77.7 µM)	62.5 µg/mL (≈ 156 µM)	62.5 µg/mL (≈ 156 µM)	> 100 µg/mL	> 100 µg/mL	> 100 µg/mL
COC(=O)[C@]1(C)CCC[C@]2(C)c3ccc(C(C)C)cc3-c3c(c4ccccc4n3CCn3ccnc3)[C@@H]12	62.5 µg/mL (≈ 126 µM)	31.2 µg/mL (≈ 62.9 µM)	15.6 µg/mL (≈ 31.5 µM)	> 100 µg/mL	> 100 µg/mL	62.5 µg/mL (≈ 126 µM)	> 100 µg/mL
COC(=O)[C@]1(C)CCC[C@]2(C)c3ccc(C(C)C)cc3-c3c(c4ccccc4n3CCn3ccnn3)[C@@H]12	15.6 µg/mL (≈ 31.4 µM)	7.8 µg/mL (≈ 15.7 µM)	31.2 µg/mL (≈ 62.8 µM)	31.2 µg/mL (≈ 62.8 µM)	> 100 µg/mL	> 100 µg/mL	> 100 µg/mL
COC(=O)[C@]1(C)CCC[C@]2(C)c3ccc(C(C)C)cc3-c3c(c4ccccc4n3CCn3c([N+](=O)[O-])cnc3C)[C@@H]12	7.8 µg/mL (≈ 14.1 µM)	0.9 µg/mL (≈ 1.62 µM)	1.9 µg/mL (≈ 3.43 µM)	7.8 µg/mL (≈ 14.1 µM)	> 100 µg/mL	31.2 µg/mL (≈ 56.2 µM)	31.2 µg/mL (≈ 56.2 µM)
COC(=O)[C@]1(C)CCC[C@]2(C)c3ccc(C(C)C)cc3-c3c(c4ccccc4n3CCn3cnc4ccccc43)[C@@H]12	31.2 µg/mL (≈ 57.2 µM)	31.2 µg/mL (≈ 57.2 µM)	31.2 µg/mL (≈ 57.2 µM)	31.2 µg/mL (≈ 57.2 µM)	> 100 µg/mL	31.2 µg/mL (≈ 57.2 µM)	62.5 µg/mL (≈ 115 µM)
COC(=O)[C@]1(C)CCC[C@]2(C)c3ccc(C(C)C)cc3-c3c(c4ccccc4n3CCn3cnnn3)[C@@H]12	31.2 µg/mL (≈ 62.7 µM)	7.8 µg/mL (≈ 15.7 µM)	31.2 µg/mL (≈ 62.7 µM)	15.6 µg/mL (≈ 31.3 µM)	> 100 µg/mL	31.2 µg/mL (≈ 62.7 µM)	62.5 µg/mL (≈ 126 µM)
COC(=O)[C@]1(C)CCC[C@]2(C)c3ccc(C(C)C)cc3-c3c(c4ccccc4n3CCn3ncnn3)[C@@H]12	62.5 µg/mL (≈ 126 µM)	31.2 µg/mL (≈ 62.7 µM)	31.2 µg/mL (≈ 62.7 µM)	62.5 µg/mL (≈ 126 µM)	> 100 µg/mL	> 100 µg/mL	> 100 µg/mL
COC(=O)[C@]1(C)CCC[C@]2(C)c3ccc(C(C)C)cc3-c3c(c4ccccc4n3CCBr)[C@@H]12	> 100 µg/mL	31.2 µg/mL (≈ 61.4 µM)	62.5 µg/mL (≈ 123 µM)	> 100 µg/mL	> 100 µg/mL	> 100 µg/mL	> 100 µg/mL
COC(=O)[C@]1(C)CCC[C@]2(C)c3ccc(C(C)C)cc3-c3c(c4ccccc4n3CCN(C)C)[C@@H]12	> 100 µg/mL	62.5 µg/mL (≈ 132 µM)	> 100 µg/mL	62.5 µg/mL (≈ 132 µM)	> 100 µg/mL	> 100 µg/mL	> 100 µg/mL
CCN(CC)CCn1c2c(c3ccccc31)[C@H]1[C@](C)(C(=O)OC)CCC[C@]1(C)c1ccc(C(C)C)cc1-2	> 100 µg/mL	31.2 µg/mL (≈ 62.3 µM)	62.5 µg/mL (≈ 125 µM)	62.5 µg/mL (≈ 125 µM)	> 100 µg/mL	62.5 µg/mL (≈ 125 µM)	> 100 µg/mL
CCCN(CCC)CCn1c2c(c3ccccc31)[C@H]1[C@](C)(C(=O)OC)CCC[C@]1(C)c1ccc(C(C)C)cc1-2	31.2 µg/mL (≈ 59 µM)	15.6 µg/mL (≈ 29.5 µM)	31.2 µg/mL (≈ 59 µM)	31.2 µg/mL (≈ 59 µM)	> 100 µg/mL	31.2 µg/mL (≈ 59 µM)	62.5 µg/mL (≈ 118 µM)
CCCCN(CCCC)CCn1c2c(c3ccccc31)[C@H]1[C@](C)(C(=O)OC)CCC[C@]1(C)c1ccc(C(C)C)cc1-2	31.2 µg/mL (≈ 56 µM)	15.6 µg/mL (≈ 28 µM)	15.6 µg/mL (≈ 28 µM)	15.6 µg/mL (≈ 28 µM)	62.5 µg/mL (≈ 112 µM)	31.2 µg/mL (≈ 56 µM)	31.2 µg/mL (≈ 56 µM)
COC(=O)[C@]1(C)CCC[C@]2(C)c3ccc(C(C)C)cc3-c3c(c4ccccc4n3CCN(CCO)CCO)[C@@H]12	62.5 µg/mL (≈ 117 µM)	62.5 µg/mL (≈ 117 µM)	> 100 µg/mL	62.5 µg/mL (≈ 117 µM)	> 100 µg/mL	62.5 µg/mL (≈ 117 µM)	31.2 µg/mL (≈ 58.6 µM)
COC(=O)[C@]1(C)CCC[C@]2(C)c3ccc(C(C)C)cc3-c3c(c4ccccc4n3CCN3CCCC3)[C@@H]12	> 100 µg/mL	31.2 µg/mL (≈ 62.6 µM)	62.5 µg/mL (≈ 125 µM)	> 100 µg/mL	> 100 µg/mL	> 100 µg/mL	> 100 µg/mL
COC(=O)[C@]1(C)CCC[C@]2(C)c3ccc(C(C)C)cc3-c3c(c4ccccc4n3CCN3CCCCC3)[C@@H]12	> 100 µg/mL	15.6 µg/mL (≈ 30.4 µM)	62.5 µg/mL (≈ 122 µM)	62.5 µg/mL (≈ 122 µM)	> 100 µg/mL	> 100 µg/mL	62.5 µg/mL (≈ 122 µM)
COC(=O)[C@]1(C)CCC[C@]2(C)c3ccc(C(C)C)cc3-c3c(c4ccccc4n3CCN3CCOCC3)[C@@H]12	31.2 µg/mL (≈ 60.6 µM)	15.6 µg/mL (≈ 30.3 µM)	7.8 µg/mL (≈ 15.2 µM)	31.2 µg/mL (≈ 60.6 µM)	62.5 µg/mL (≈ 121 µM)	62.5 µg/mL (≈ 121 µM)	31.2 µg/mL (≈ 60.6 µM)
COC(=O)[C@]1(C)CCC[C@]2(C)c3ccc(C(C)C)cc3-c3c(c4ccccc4n3CCN3CCNCC3)[C@@H]12	15.6 µg/mL (≈ 30.4 µM)	7.8 µg/mL (≈ 15.2 µM)	15.6 µg/mL (≈ 30.4 µM)	15.6 µg/mL (≈ 30.4 µM)	62.5 µg/mL (≈ 122 µM)	31.2 µg/mL (≈ 60.7 µM)	31.2 µg/mL (≈ 60.7 µM)
COC(=O)[C@]1(C)CCC[C@]2(C)c3ccc(C(C)C)cc3-c3c(c4ccccc4n3CCNc3ccc(C)cc3)[C@@H]12	> 100 µg/mL	62.5 µg/mL (≈ 117 µM)	> 100 µg/mL	> 100 µg/mL	> 100 µg/mL	> 100 µg/mL	> 100 µg/mL
COC(=O)[C@]1(C)CCC[C@]2(C)c3ccc(C(C)C)cc3-c3c(c4ccccc4n3CCNc3ccc(OC)cc3)[C@@H]12	> 100 µg/mL	> 100 µg/mL	62.5 µg/mL (≈ 113 µM)	> 100 µg/mL	> 100 µg/mL	> 100 µg/mL	> 100 µg/mL
COC(=O)[C@]1(C)CCC[C@]2(C)c3ccc(C(C)C)cc3-c3c(c4ccccc4n3CCNc3ccc(Cl)cc3)[C@@H]12	> 100 µg/mL	31.2 µg/mL (≈ 56.2 µM)	31.2 µg/mL (≈ 56.2 µM)	62.5 µg/mL (≈ 113 µM)	> 100 µg/mL	62.5 µg/mL (≈ 113 µM)	> 100 µg/mL
COC(=O)[C@]1(C)CCC[C@]2(C)c3ccc(C(C)C)cc3-c3c(c4ccccc4n3CCNc3ccc(Br)cc3)[C@@H]12	> 100 µg/mL	31.2 µg/mL (≈ 52 µM)	62.5 µg/mL (≈ 104 µM)	> 100 µg/mL	> 100 µg/mL	> 100 µg/mL	> 100 µg/mL
COC(=O)[C@]1(C)CCC[C@]2(C)c3ccc(C(C)C)cc3-c3c(c4ccccc4n3CCNc3ccc([N+](=O)[O-])cc3)[C@@H]12	31.2 µg/mL (≈ 55.2 µM)	15.6 µg/mL (≈ 27.6 µM)	7.8 µg/mL (≈ 13.8 µM)	15.6 µg/mL (≈ 27.6 µM)	> 100 µg/mL	31.2 µg/mL (≈ 55.2 µM)	62.5 µg/mL (≈ 110 µM)
COC(=O)[C@]1(C)CCC[C@]2(C)c3ccc(C(C)C)cc3C(=O)C[C@@H]12	> 100 µg/mL	31.2 µg/mL (≈ 95 µM)	31.2 µg/mL (≈ 95 µM)	62.5 µg/mL (≈ 190 µM)	> 100 µg/mL	> 100 µg/mL	> 100 µg/mL
CC(=O)N1CCN(c2ccc(OCC3COC(Cn4ccnc4)(c4ccc(Cl)cc4Cl)O3)cc2)CC1 (racemic) [KETOCONAZOLE]					7.8 µg/mL (≈ 14.7 µM)	3.9 µg/mL (≈ 7.34 µM)	3.9 µg/mL (≈ 7.34 µM)
